# In US20060165715A1, “Gp41 inhibitor” (priority 2001, published 2006):
# Experiments:
# HIV-1 Env = details: from Ferrer et al., Nature Struct. Biol. 1999, given for comparison; read-out: IC50, fusion inhibitory activity; cited from earlier work
# [1] = test system: HIV Env-mediated cell fusion; assay: vaccinia virus-based reporter gene assay of HIV Env-mediated cell fusion (B-SC-1 target and effector cells, soluble CD4); design: species or system HIV-1; details: relative to both N35CCG-N13 and NCCG-gp41
# [2] = biological target: HIV-1 (LAV) Env protein on effector cells (gp120/gp41; gp41 pre-hairpin fusion intermediate) (HIV-1 (LAV)) (UniProt P03377); assay: cell-based or functional assay
# [3] = biological target: HIV-1 (LAV) Env protein on effector cells (gp120/gp41; gp41 pre-hairpin fusion intermediate) (HIV-1 (LAV), UniProt P03377 517-861); assay: cell-based or functional assay
molecule,measurement,setting,value
enfuvirtide,IC50,HIV-1 Env,~50 nM
N34CCG (MGSSHHHHHHSSGLVPRGSHMSGIVQQQNNLLRAIEAQQHLLQLTVWGIKQCCGR),fold lower inhibitory activity,[1],5-6 fold
N36 peptide (residues 546-581 of HIV-1 Env) (from UniProt P04578 546-581),"IC50, inhibition of HIV-1 Env-mediated cell fusion (vaccinia reporter gene assay, beta-galactosidase)",[2],16400 nM
"6H-N34CCG, disulfide-linked trimer (designed binder) MGSSHHHHHHSSGLVPRGSHMSGIVQQQNNLLRAIEAQQHLLQLTVWGIKQCCGR","IC50, inhibition of HIV Env-mediated cell fusion (vaccinia reporter gene assay, beta-galactosidase)",[3],96 nM
